This note sets out measurements from patent publication USRE30451E, “Novel process for producing antibiotics bleomycin” (priority 1969, dated 1980).

Structures are written as SMILES.

The first data set deals with Ehrlich ascites carcinoma cells. As to conditions: maximum dose level at which mice survive 100 to 200 percent of control survival days; intraperitoneally once a day for 10 days, doses 25 mg/kg to 0.19 mg/kg.
The compound `Cc1c(N)nc(C(CC(N)=O)NCC(N)C(N)=O)nc1C(=O)NC(C(=O)NC(C)C(O)C(C)C(=O)NC(C(=O)NCCc1nc(-c2nc(C(=O)NCCCN3CCOCC3)cs2)cs1)C(C)O)C(OC1OC(CO)C(O)C(O)C1OC1OC(CO)C(O)C(OC(N)=O)C1O)c1cnc[nH]1` (centres unmarked) [Compound 26, 3-(morpholino)-propylamoni-bleomycin] displayed an ED50 of 0.78. As to `CNCCCNC(=O)c1csc(-c2csc(CCNC(=O)C(NC(=O)C(C)C(O)C(C)NC(=O)C(NC(=O)c3nc(C(CC(N)=O)NCC(N)C(N)=O)nc(N)c3C)C(OC3OC(CO)C(O)C(O)C3OC3OC(CO)C(O)C(OC(N)=O)C3O)c3cnc[nH]3)C(C)O)n2)n1` (centres unmarked) [Compound 17, 3-N-methylaminopropylamino-bleomycin], the ED50 is recorded as 0.19. In turn, `Cc1c(N)nc(C(CC(N)=O)NCC(N)C(N)=O)nc1C(=O)NC(C(=O)NC(C)C(O)C(C)C(=O)NC(C(=O)NCCc1nc(-c2nc(C(=O)NCCCNCCCN3CCCCC3)cs2)cs1)C(C)O)C(OC1OC(CO)C(O)C(O)C1OC1OC(CO)C(O)C(OC(N)=O)C1O)c1cnc[nH]1` (centres unmarked) [Compound 30, 3-(3-piperidinopropyl)-aminopropylamino-bleomycin] showed an ED50 of 0.39. Consider `Cc1c(N)nc(C(CC(N)=O)NCC(N)C(N)=O)nc1C(=O)NC(C(=O)NC(C)C(O)C(C)C(=O)NC(C(=O)NCCc1nc(-c2nc(C(=O)NCCCNCCCNC(C)c3ccccc3)cs2)cs1)C(C)O)C(OC1OC(CO)C(O)C(O)C1OC1OC(CO)C(O)C(OC(N)=O)C1O)c1cnc[nH]1` (centres unmarked) [Compound 15], for which the ED50 is listed as 0.39. `Cc1c(N)nc(C(CC(N)=O)NCC(N)C(N)=O)nc1C(=O)NC(C(=O)NC(C)C(O)C(C)C(=O)NC(C(=O)NCCc1nc(-c2nc(C(=O)NCCCN3CCNCC3)cs2)cs1)C(C)O)C(OC1OC(CO)C(O)C(O)C1OC1OC(CO)C(O)C(OC(N)=O)C1O)c1cnc[nH]1` (centres unmarked) [Compound 14, 3-(piperazino)propylamino-bleomycin] registered an ED50 of 0.39. The compound `Cc1c(N)nc(C(CC(N)=O)NCC(N)C(N)=O)nc1C(=O)NC(C(=O)NC(C)C(O)C(C)C(=O)NC(C(=O)NCCc1nc(-c2nc(C(=O)NCCCN(C)CCCN)cs2)cs1)C(C)O)C(OC1OC(CO)C(O)C(O)C1OC1OC(CO)C(O)C(OC(N)=O)C1O)c1cnc[nH]1` (centres unmarked) [Compound 22, 3-[N-methyl-N-(3-aminopropyl)]-aminopropylamino-bleomycin] yielded an ED50 of 0.19. `Cc1c(N)nc(C(CC(N)=O)NCC(N)C(N)=O)nc1C(=O)NC(C(=O)NC(C)C(O)C(C)C(=O)NC(C(=O)NCCc1nc(-c2nc(C(=O)NCCCNCCCN3CCCC3)cs2)cs1)C(C)O)C(OC1OC(CO)C(O)C(O)C1OC1OC(CO)C(O)C(OC(N)=O)C1O)c1cnc[nH]1` (centres unmarked) [Compound 29, 3-(3-pyrrolidinopropyl)-aminopropylamino-bleomycin]: the ED50 is reported as 0.09.

`Cc1c(N)nc(C(CC(N)=O)NCC(N)C(N)=O)nc1C(=O)NC(C(=O)NC(C)C(O)C(C)C(=O)NC(C(=O)NCCc1nc(-c2nc(C(=O)NCCCN(C)C)cs2)cs1)C(C)O)C(OC1OC(CO)C(O)C(O)C1OC1OC(CO)C(O)C(OC(N)=O)C1O)c1cnc[nH]1` (centres unmarked) [Compound 19, 3-(N,N-dimethyl)-aminopropylamino-bleomycin] had an ED50 of 0.39. In turn, `CCN(CC)CCCNC(=O)c1csc(-c2csc(CCNC(=O)C(NC(=O)C(C)C(O)C(C)NC(=O)C(NC(=O)c3nc(C(CC(N)=O)NCC(N)C(N)=O)nc(N)c3C)C(OC3OC(CO)C(O)C(O)C3OC3OC(CO)C(O)C(OC(N)=O)C3O)c3cnc[nH]3)C(C)O)n2)n1` (centres unmarked) [Compound 11, 3,-N,N-diethylaminopropylamino-bleomycin] had an ED50 of 0.19.

As to `Cc1c(N)nc(C(CC(N)=O)NCC(N)C(N)=O)nc1C(=O)NC(C(=O)NC(C)C(O)C(C)C(=O)NC(C(=O)NCCc1nc(-c2nc(C(=O)NCC3CCNCC3)cs2)cs1)C(C)O)C(OC1OC(CO)C(O)C(O)C1OC1OC(CO)C(O)C(OC(N)=O)C1O)c1cnc[nH]1` (centres unmarked) [Compound 41, 4-piperidylmethylamino-bleomycin], the ED50 is 0.78. For the compound `Cc1c(N)nc(C(CC(N)=O)NCC(N)C(N)=O)nc1C(=O)NC(C(=O)NC(C)C(O)C(C)C(=O)NC(C(=O)NCCc1nc(-c2nc(C(=O)NCCCN3CCCC3)cs2)cs1)C(C)O)C(OC1OC(CO)C(O)C(O)C1OC1OC(CO)C(O)C(OC(N)=O)C1O)c1cnc[nH]1` (centres unmarked) [Compound 24, 3-(pyrrolidino)-propylamino-bleomycin], the ED50 was found to be 0.39. The compound `CCCCNCCCNCCCNC(=O)c1csc(-c2csc(CCNC(=O)C(NC(=O)C(C)C(O)C(C)NC(=O)C(NC(=O)c3nc(C(CC(N)=O)NCC(N)C(N)=O)nc(N)c3C)C(OC3OC(CO)C(O)C(O)C3OC3OC(CO)C(O)C(OC(N)=O)C3O)c3cnc[nH]3)C(C)O)n2)n1` (centres unmarked) [Compound 12, 3-(3-N-butyl-aminopropyl)-aminopropylamino-bleomycin] came in with an ED50 of 0.19. Same read-out and setting: as for `Cc1c(N)nc(C(CC(N)=O)NCC(N)C(N)=O)nc1C(=O)NC(C(=O)NC(C)C(O)C(C)C(=O)NC(C(=O)NCCc1nc(-c2nc(C(=O)NCCC[N+](C)(C)C)cs2)cs1)C(C)O)C(OC1OC(CO)C(O)C(O)C1OC1OC(CO)C(O)C(OC(N)=O)C1O)c1cnc[nH]1` (centres unmarked) [Compound 20, 3-(N,N,N-trimethyl)-aminopropylamino-bleomycin], the figure is 0.19. `Cc1c(N)nc(C(CC(N)=O)NCC(N)C(N)=O)nc1C(=O)NC(C(=O)NC(C)C(O)C(C)C(=O)NC(C(=O)NCCc1nc(-c2nc(C(=O)NCCCNC3CCCCC3)cs2)cs1)C(C)O)C(OC1OC(CO)C(O)C(O)C1OC1OC(CO)C(O)C(OC(N)=O)C1O)c1cnc[nH]1` (centres unmarked) [Compound 38, 3-cyclohexylaminopropylamino-bleomycin] yielded an ED50 of 0.39.

`Cc1c(N)nc(C(CC(N)=O)NCC(N)C(N)=O)nc1C(=O)NC(C(=O)NC(C)C(O)C(C)C(=O)NC(C(=O)NCCc1nc(-c2nc(C(=O)NCCN(C)C)cs2)cs1)C(C)O)C(OC1OC(CO)C(O)C(O)C1OC1OC(CO)C(O)C(OC(N)=O)C1O)c1cnc[nH]1` (centres unmarked) [Compound 9, 3-N,N-dimethylaminoethylamino-bleomycin]: the ED50 came out at 0.39.

Compound `Cc1c(N)nc(C(CC(N)=O)NCC(N)C(N)=O)nc1C(=O)NC(C(=O)NC(C)C(O)C(C)C(=O)NC(C(=O)NCCc1nc(-c2nc(C(=O)NCCc3cnc[nH]3)cs2)cs1)C(C)O)C(OC1OC(CO)C(O)C(O)C1OC1OC(CO)C(O)C(OC(N)=O)C1O)c1cnc[nH]1` (centres unmarked) [Compound 42, 2-(4-imidazolyl)-ethylamino-bleomycin] yielded an ED50 of 0.78. With `Cc1c(N)nc(C(CC(N)=O)NCC(N)C(N)=O)nc1C(=O)NC(C(=O)NC(C)C(O)C(C)C(=O)NC(C(=O)NCCc1nc(-c2nc(C(=O)NCCCN3CCCCC3)cs2)cs1)C(C)O)C(OC1OC(CO)C(O)C(O)C1OC1OC(CO)C(O)C(OC(N)=O)C1O)c1cnc[nH]1` (centres unmarked) [Compound 25, 3-(piperidino)-propylamino-bleomycin], the ED50 is 0.39. On the same count and under the same terms, the same measure for `Cc1c(N)nc(C(CC(N)=O)NCC(N)C(N)=O)nc1C(=O)NC(C(=O)NC(C)C(O)C(C)C(=O)NC(C(=O)NCCc1nc(-c2nc(C(=O)NCCNCC(C)O)cs2)cs1)C(C)O)C(OC1OC(CO)C(O)C(O)C1OC1OC(CO)C(O)C(OC(N)=O)C1O)c1cnc[nH]1` (centres unmarked) [Compound 13, 2-(2-hydroxypropyl)-aminoethylamino-bleomycin]: 0.39; for `Cc1c(N)nc(C(CC(N)=O)NCC(N)C(N)=O)nc1C(=O)NC(C(=O)NC(C)C(O)C(C)C(=O)NC(C(=O)NCCc1nc(-c2nc(C(=O)NCCCNCCCN3CCOCC3)cs2)cs1)C(C)O)C(OC1OC(CO)C(O)C(O)C1OC1OC(CO)C(O)C(OC(N)=O)C1O)c1cnc[nH]1` (centres unmarked) [Compound 31, 3-(3-morpholinopropyl)-aminopropylamino-bleomycin]: 0.19. Compound `Cc1c(N)nc(C(CC(N)=O)NCC(N)C(N)=O)nc1C(=O)NC(C(=O)NC(C)C(O)C(C)C(=O)NC(C(=O)NCCc1nc(-c2nc(C(=O)NCCCN3CCN(CCCN)CC3)cs2)cs1)C(C)O)C(OC1OC(CO)C(O)C(O)C1OC1OC(CO)C(O)C(OC(N)=O)C1O)c1cnc[nH]1` (centres unmarked) [Compound 28, 3-[1-{4-(3-aminopropyl)}-piperazino]propylamino-bleomycin] displayed an ED50 of 0.19. For the compound `Cc1c(N)nc([C@H](CC(N)=O)NC[C@H](N)C(N)=O)nc1C(=O)N[C@H](C(=O)N[C@H](C)[C@@H](O)[C@H](C)C(=O)N[C@H](C(=O)NCCc1nc(-c2nc(C(=O)NCCC[S+](C)C)cs2)cs1)[C@@H](C)O)[C@@H](O[C@@H]1O[C@@H](CO)[C@@H](O)[C@H](O)[C@@H]1O[C@H]1O[C@H](CO)[C@@H](O)[C@H](OC(N)=O)[C@@H]1O)c1c[nH]cn1.[Br-]` [Compound 1, Bleomycin A2, reference compound], the ED50 is 0.78. As to `CO[C@@]12[C@H](COC(N)=O)C3=C(C(=O)C(C)=C(N)C3=O)N1C[C@@H]1N[C@@H]12` [Mytomycin C, reference compound], the ED50 is given as 0.39. `Cc1c(N)nc(C(CC(N)=O)NCC(N)C(N)=O)nc1C(=O)NC(C(=O)NC(C)C(O)C(C)C(=O)NC(C(=O)NCCc1nc(-c2nc(C(=O)NCCCNCCCO)cs2)cs1)C(C)O)C(OC1OC(CO)C(O)C(O)C1OC1OC(CO)C(O)C(OC(N)=O)C1O)c1cnc[nH]1` (centres unmarked) [Compound 32, 3-(3-hydroxypropyl)-aminopropylamino-bleomycin] registered an ED50 of 0.19. With `Cc1c(N)nc(C(CC(N)=O)NCC(N)C(N)=O)nc1C(=O)NC(C(=O)NC(C)C(O)C(C)C(=O)NC(C(=O)NCCc1nc(-c2nc(C(=O)NCCCNCCCNC3CCCCC3)cs2)cs1)C(C)O)C(OC1OC(CO)C(O)C(O)C1OC1OC(CO)C(O)C(OC(N)=O)C1O)c1cnc[nH]1` (centres unmarked) [Compound 39, 3-(3-cyclohexylaminopropyl)-aminopropylamino bleomycin], the ED50 is 0.19. Take `Cc1c(N)nc(C(CC(N)=O)NCC(N)C(N)=O)nc1C(=O)NC(C(=O)NC(C)C(O)C(C)C(=O)NC(C(=O)NCCc1nc(-c2nc(C(=O)NCC(C)N)cs2)cs1)C(C)O)C(OC1OC(CO)C(O)C(O)C1OC1OC(CO)C(O)C(OC(N)=O)C1O)c1cnc[nH]1` (centres unmarked) [Compound 16, 2-aminopropylamino-bleomycin]: the ED50 stood at 0.39.

System in another data set: not given
As to conditions: tumour-inoculated ICR/JCL mice, intraperitoneally once a day for 10 days, doses 25 mg/kg to 0.19 mg/kg, Behres-Karber's method, observed up to 50 days.
On to `Cc1c(N)nc(C(CC(N)=O)NCC(N)C(N)=O)nc1C(=O)NC(C(=O)NC(C)C(O)C(C)C(=O)NC(C(=O)NCCc1nc(-c2nc(C(=O)NCCCNCCCNC(C)c3ccccc3)cs2)cs1)C(C)O)C(OC1OC(CO)C(O)C(O)C1OC1OC(CO)C(O)C(OC(N)=O)C1O)c1cnc[nH]1` (centres unmarked) [Compound 15], for which the LD50 was 13.1.
